Earlier results in publication PMC4287963 (Inorganic chemistry, 2009).

Details: Cu(II) complex of TETA; cited from earlier work

## O=C(O)CN1CCCN(CC(=O)O)CCN(CC(=O)O)CCCN(CC(=O)O)CC1 [TETA]
  thermodynamic formation constant log K: 21.9
